Experimental findings from patent EP4257135A1, “BENZIMIDAZOLE DERIVATIVES FOR PULMONARY ARTERIAL HYPERTENSION” (Justus-Liebig-Universität Gießen, priority 2022, dated 2023) are described below.

In one assay the test system is MCT-PAH. The experiment in a line: Monocrotaline-induced PAH rat model, right heart catheterisation and histology. The class given is in vivo, Ratten. The following applies: MCT-PAH rats, three times weekly for two weeks, intratracheal nebulisation 275 nmol/kg. The text has this: (§1) Um das therapeutische Potenzial der EP300/CREBBP-Hemmung in vivo weiter zu erforschen, haben die Erfinder Versuchstiere in drei verschiedenen Nagetiermodellen mit etablierter PAH mit der Substanz SGC-CBP30 behandelt, wobei SGC-CBP30 durch intra-tracheale Vernebelung über zwei Wochen lang dreimal wöchentlich verabreicht wurde. Es wurden folgende drei verschiedenen Nagetiermodelle für eine PAH (FHR-PAH, MCT-PAH und SuHx-PAH) getestet: • Fawn-hooded hypertensive Ratten (FHR): Das ist ein genetischer Rattenstamm, bei dem PAH im Alter spontan auftritt und der ähnliche PAH-Anomalien aufweist, wie sie bei IPAH bei Menschen nach 40 Wochen auftreten. • Durch Monocrotalin (MCT) induziertes PAH-Rattenmodell. • Ein SUGEN5416/chronische Hypoxie (SuHx)-Rattenmodell für PAH, bei dem die Ratten eine einmalige Injektion von SUGEN5416 erhielten und anschließend einer chronischen Hypoxie (10% O2) ausgesetzt wurden (SuHx-PAH).
(§2) Für die MCT-PAH wurden männlichen und weiblichen SD-Ratten (Sprague-Dawley-Ratten) subkutan 60 mg/kg MCT (Sigma, Katalog: C2401) injiziert, um PAH zu induzieren. Bei der SuHx-PAH erhielten SD-Ratten eine einmalige subkutane Injektion von SUGEN5416 (20 mg/kg) und wurden drei Wochen lang einer normobaren Hypoxie ausgesetzt, bevor sie für zwei Wochen an die Raumluft zurückkehrten. Zwei Wochen nach der MCT-Injektion bzw. drei Wochen nach der SUGEN5416-Injektion (sobald PAH festgestellt wurde) wurden die Ratten nach dem Zufallsprinzip in vier Gruppen eingeteilt und erhielten zwei Wochen lang dreimal wöchentlich entweder Vehikel (Verabreichung von 1 % Methylcellulose in destilliertem Wasser oder intratracheale Vernebelung von 4 % DMSO in PBS als Negativkontrolle), SGC-CBP30 (Verabreichung von 10 mg/kg in 1 % Methylcellulose + destilliertem Wasser) oder SGC-CBP30 (intratracheale Vernebelung von 275 nmol/kg in 4 % DMSO + PBS). Einjährige männliche und weibliche FHR-Ratten mit etablierter PAH wurden in dieselben vier Gruppen wie beim MCT-Modell eingeteilt und den selben Behandlungsmethoden unterzogen. Für die Vernebelung wurden die Ratten mit 3%igem Isofluran betäubt. Ein 16-Gauge-Katheter wurde in die Luftröhre eingeführt. Ein Vernebler (Aerogen) wurde an den Katheter angeschlossen, und für jede Behandlung wurde ein Volumen von 50 µl SGC-CBP30 oder dessen Vehikel (als Negativkontrolle) verabreicht. Nach zweiwöchiger Behandlung wurde eine Rechtsherzkatheteruntersuchung bei geschlossenem Thorax durchgeführt, um folgende hämodynamischen Daten zu erfassen: Systolischer Rechtsventrikulärer Druck (RVSP), mittlerer PA-Druck (mPAP), Herzzeitvolumen (CO) und Schlagvolumen (SV). Der Gesamtwiderstand der Lunge (TPR) wurde durch Division von mPAP durch CO ermittelt. Nach der hämodynamischen Messung wurden den Ratten Gewebeproben entnommen. Die Experimente wurden gemäß den Richtlinien des Canadian Council on Animal Care durchgeführt. Alle Protokolle wurden von der institutionellen Ethikkommission für Tiere (Tierschutzausschuss der Universität Laval) geprüft und genehmigt (Protokollnummer 2019-018-2). Alle Experimente folgten den Richtlinien für die präklinische Forschung bei PAH.
(§3) Der schwarze Balken zeigt 50 µm an. Die Daten sind als Mittelwert ± SD angegeben und die statistische Analyse wurde mit einem ungepaarten Student's t-Test durchgeführt. FHR, MCT und SU5416/chronische Hypoxie-Ratten: *P<0,05, **P<0,01 und ***P<0,001 gegenüber den mit Vehikel behandelten Gruppen. MCT-Rattenmodell: §P<0,05, §§P<0,01 und §§§P<0,001 gegenüber der unbehandelten Kontrollgruppe. • A: Schematische Darstellung des Versuchsaufbaus für die Behandlung von Fawn-hooded hypertensive Ratten (FHR) mit dem EP300/CREBBP-Inhibitor SGC-CBP30, der selektiv auf die Acetyltransferase EP300/CREBBP wirkt. […]

Another assay has as its system FHR-PAH. The experiment in a line: Fawn-hooded hypertensive rat model of established PAH, right heart catheterisation and histology. The class given is in vivo, Ratten. The following applies: FHR-PAH rats, three times weekly for two weeks.
Excerpt: as §1, §2, §3

The subject of the next assay is PAH-SMCs. The experiment in a line: Hyperproliferative phenotype of PAH smooth muscle cells. The class given is cell-based, human. The following applies: vs DMSO. The text has this:
PAH-FBs wurden mit verschiedenen Konzentrationen der Substanz SGC-CBP30 oder dem Lösungsmittel DMSO inkubiert, um die Zellproliferation und die Induktion von Apoptose 24 Stunden danach zu untersuchen. Die Wirkung der selektiven EP300/CREBBP-Inhibition auf die Zellproliferation wurde durch den Einbau von BrdU (Bromodeoxyuridin, 5-Bromo-2'-Deoxyuridin, BUdR, BrdUrd, Broxuridine) bewertet. Die Wirkung der Substanz SGC-CBP30 oder des Lösungsmittels DMSO auf die Induktion von Apoptose wurde durch Cell Death Detection ELISAPLUS bewertet. Dabei zeigten sich deutliche Unterschiede zwischen der Substanz SGC-CBP30 und dem Lösungsmittel DMSO.
Das therapeutische Potenzial der EP300/CREBBP-Hemmung durch die Substanz SGC-CBP30 wurde untersucht. Dazu wurde die Wirksamkeit auf PAH-FBs und PAH-SMCs geprüft, die aus den Lungenarterien von menschlichen PAH-Patienten und aus den Lungenarterien von Ratten mit MCT-PAH (Rattenmodell mit Monocrotalin) isoliert wurden. […] Die Wirkung der EP300-Hemmung auf das vaskuläre Remodelling wurde durch Quantifizierung der prozentualen medialen Wanddicke in den mit der Substanz SGC-CBP30 inkubierten PCLS im Vergleich zu den mit DMSO inkubierten Kontrollen bewertet. Dabei zeigten sich deutliche Unterschiede zwischen der Substanz SGC-CBP30 und DMSO.

The mark [1] stands for this setting: intratracheal nebulisation 275 nmol/kg, vs vehicle.

Take `COc1ccc(CCc2nc3cc(-c4c(C)noc4C)ccc3n2C[C@H](C)N2CCOCC2)cc1Cl` [SGC-CBP30, 2-[2-(3-Chloro-4-methoxyphenyl)ethyl]-5-(3,5-dimethyl-1,2-oxazol-4-yl)-1-[(S)-2-(morpholin-4-yl)propyl]-1H-benzimidazole]: in the assay with MCT-PAH (start two weeks after MCT), the RVSP result is reported as “signifikanten Senkung” and the mPAP entry is on record as “signifikanten Senkung”. In addition, in the assay on MCT-PAH, the CO result is “verbesserten sich nach der Behandlung mit der Substanz SGC-CBP30 bei FHR-PAH und MCT-PAH signifikant”, the SV entry is listed as “verbesserten sich nach der Behandlung mit der Substanz SGC-CBP30 bei FHR-PAH und MCT-PAH signifikant” and the “mediale Wanddicke der distalen PAs” value is “signifikant verringert”. In addition, the TPR result with MCT-PAH (mPAP divided by CO) is on record as “signifikanten Senkung”. Also, in the assay with FHR-PAH, the “molekulare Marker für Myokardhypertrophie” value is “signifikant abgeschwächt”. Also, in the assay with FHR-PAH (intratracheal nebulisation 275 nmol/kg), the “mediale Wanddicke der distalen PAs” value was “signifikant verringert”. In addition, the TPR entry in the assay on FHR-PAH (intratracheal nebulisation 275 nmol/kg, mPAP divided by CO) is recorded as “signifikanten Senkung”. Besides, in the assay with FHR-PAH (setting [1]), the CO entry is “verbesserten sich nach der Behandlung mit der Substanz SGC-CBP30 bei FHR-PAH und MCT-PAH signifikant”, the RVSP result is “signifikanten Senkung”, the SV result is given as “verbesserten sich nach der Behandlung mit der Substanz SGC-CBP30 bei FHR-PAH und MCT-PAH signifikant” and the mPAP entry is on record as “signifikanten Senkung”. The “hyperproliferativer Phänotyp” value in the assay with PAH-SMCs is “schwächte den hyperproliferativen Phänotyp und die Apoptoserate von PAH-FBs und PAH-SMCs deutlich ab”.
